From the supplement of paper PMC5303821, “Major sulfonate transporter Soa1 in Saccharomyces cerevisiae and considerable substrate diversity in its fungal family” (Nature Communications, 2017)

Key:
Settings in all cases: sulfur source concentration 200 µM; S. cerevisiae S288C/BY sul1Δ sul2Δ soa1Δ with transporter ortholog inserted at SOA1 locus; sulfur-free B medium, 4% glucose, pH 6.5, sole sulfur source
[1] = system: Aspergillus nidulans_XP_661733; assay: lag phase before growth; higher = slower start of growth
Procedure: (§1)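 S. cerevisiae sul1Δ sul2Δ soa1Δ strains expressing 20 fungal SOA1 orthologs (or no transporter, 'soa1 del') were grown in liquid sulfur-free B medium, 4% glucose, pH 6.5 (7 mM K2HPO4). The strains were sulfur-starved for 3 days beforehand. Each sulfur compound was the sole sulfur source at 200 µM (sulfate also at 40 mM). OD600 curves of duplicate cultures were averaged and fitted (logistic / Richards, GroFit) to give maximal growth rate, maximal density and lag phase; temperature not stated.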

[2] = system: Ogataea parapolymorpha_XP_013935289; assay: as above
Procedure: as §1

[3] = system: Saccharomyces cerevisiae_SOA1; assay: as above
Procedure: as §1

[4] = system: Saccharomyces uvarum_SOA2; assay: as above
Procedure: as §1

[5] = system: Aspergillus nidulans (IAM 2006)_astA; assay: maximal culture density with compound as sole sulfur source (OD600); higher = better growth
Procedure: as §1

[6] = system: Aspergillus nidulans_CBF74694; assay: as above
Procedure: as §1

[7] = system: Aspergillus nidulans_CBF80346; assay: as above
Procedure: as §1

[8] = system: Aspergillus nidulans_XP_660563; assay: as above
Procedure: as §1

[9] = system: Aspergillus nidulans_XP_660670; assay: as above
Procedure: as §1

[10] = system: Aspergillus nidulans_XP_661711; assay: as above
Procedure: as §1

[11] = system: Aspergillus nidulans_XP_661733; assay: as above
Procedure: as §1

[12] = system: Aspergillus nidulans_XP_681611; assay: as above
Procedure: as §1

[13] = system: Metarhizium robertsii_XP_007821441; assay: as above
Procedure: as §1

[14] = system: Metarhizium robertsii_XP_007822519; assay: as above
Procedure: as §1

[15] = system: Metarhizium robertsii_XP_007823832; assay: as above
Procedure: as §1

[16] = system: Ogataea parapolymorpha_XP_013932458; assay: as above
Procedure: as §1

[17] = system: Ogataea parapolymorpha_XP_013935289; assay: as above
Procedure: as §1

[18] = system: Ogataea parapolymorpha_XP_013936897; assay: as above
Procedure: as §1

[19] = system: Saccharomyces cerevisiae_SOA1; assay: as above
Procedure: as §1

[20] = system: Saccharomyces eubayanus_SOA1; assay: as above
Procedure: as §1

[21] = system: Saccharomyces eubayanus_SOA2; assay: as above
Procedure: as §1

[22] = system: Saccharomyces uvarum_SOA1; assay: as above
Procedure: as §1

[23] = system: Saccharomyces uvarum_SOA2; assay: as above
Procedure: as §1

soa1 del [24] = assay: as above
Procedure: as §1

[25] = system: Aspergillus nidulans (IAM 2006)_astA; assay: maximal growth rate with compound as sole sulfur source (OD600 per h); higher = better growth / uptake of the sulfur source
Procedure: as §1

[26] = system: Aspergillus nidulans_CBF74694; assay: as above
Procedure: as §1

[27] = system: Aspergillus nidulans_CBF80346; assay: as above
Procedure: as §1

[28] = system: Aspergillus nidulans_XP_660563; assay: as above
Procedure: as §1

[29] = system: Aspergillus nidulans_XP_660670; assay: as above
Procedure: as §1

[30] = system: Aspergillus nidulans_XP_661711; assay: as above
Procedure: as §1

[31] = system: Aspergillus nidulans_XP_661733; assay: as above
Procedure: as §1

[32] = system: Aspergillus nidulans_XP_681611; assay: as above
Procedure: as §1

[33] = system: Fusarium oxysporum_ENH65823; assay: as above
Procedure: as §1

[34] = system: Metarhizium robertsii_XP_007821441; assay: as above
Procedure: as §1

[35] = system: Metarhizium robertsii_XP_007822519; assay: as above
Procedure: as §1

[36] = system: Metarhizium robertsii_XP_007823832; assay: as above
Procedure: as §1

[37] = system: Ogataea parapolymorpha_XP_013932458; assay: as above
Procedure: as §1

[38] = system: Ogataea parapolymorpha_XP_013935289; assay: as above
Procedure: as §1

[39] = system: Ogataea parapolymorpha_XP_013936897; assay: as above
Procedure: as §1

[40] = system: Saccharomyces cerevisiae_SOA1; assay: as above
Procedure: as §1

[41] = system: Saccharomyces eubayanus_SOA1; assay: as above
Procedure: as §1

[42] = system: Saccharomyces eubayanus_SOA2; assay: as above
Procedure: as §1

[43] = system: Saccharomyces uvarum_SOA1; assay: as above
Procedure: as §1

[44] = system: Saccharomyces uvarum_SOA2; assay: as above
Procedure: as §1

soa1 del [45] = assay: as above
Procedure: as §1

O=C(O)CS(=O)(=O)O [Sulfoacetic acid]
lag phase before growth [1]: 26.9 h
lag phase before growth [2]: 8.28 h
lag phase before growth [3]: 9.42 h
lag phase before growth [4]: 38.2 h
maximal culture density [5]: 0.731
maximal culture density [6]: 0.183
maximal culture density [7]: 0.223
maximal culture density [8]: 0.308
maximal culture density [9]: 0.222
maximal culture density [10]: 0.223
maximal culture density [11]: 0.777
maximal culture density [12]: 0.3
maximal culture density [13]: 0.225
maximal culture density [14]: 0.282
maximal culture density [15]: 0.712
maximal culture density [16]: 0.251
maximal culture density [17]: 1.33
maximal culture density [18]: 0.275
maximal culture density [19]: 1.28
maximal culture density [20]: 0.274
maximal culture density [21]: 0.211
maximal culture density [22]: 0.391
maximal culture density [23]: 1.01
maximal culture density (soa1 del [24]): 0.216
maximal growth rate [25]: 0.0131
maximal growth rate [26]: 0.00286
maximal growth rate [27]: 0.00462
maximal growth rate [28]: 0.00621
maximal growth rate [29]: 0.00401
maximal growth rate [30]: 0.00399
maximal growth rate [31]: 0.0174
maximal growth rate [32]: 0.00636
maximal growth rate [33]: 0.00684
maximal growth rate [34]: 0.00346
maximal growth rate [35]: 0.00308
maximal growth rate [36]: 0.0177
maximal growth rate [37]: 0.00439
maximal growth rate [38]: 0.0296
maximal growth rate [39]: 0.00474
maximal growth rate [40]: 0.0325
maximal growth rate [41]: 0.0033
maximal growth rate [42]: 0.00305
maximal growth rate [43]: 0.00282
maximal growth rate [44]: 0.0314
maximal growth rate (soa1 del [45]): 0.00385
